# Test results published in patent US20210038732A1, “ANTICANCER MICRORNA AND LIPID FORMULATIONS THEREOF” (INTERNA TECHNOLOGIES B.V., priority 2018, published 2021).
# Key:
# H1975 = test: Caspase 3/7 apoptosis assay; assay type: cell-based; conditions: 10 nM, normalized to mock
# Protocol: (§1) Depending on cancer cell type 3000-6000 cells were seeded in a 96 well plate. After cells attached, they were transfected with different concentrations of miRNA-193a and apoptosis induction was measured at different time points. This assay was performed using Promega kit. 100 uL of caspase reagent was added to 100 uL of media in each well in 96-well plate and incubated for 2 hours in the dark at room temperature. The luminescent signal was read on a luminescent plate reader.
# (§2) Different biological effects of miRNA-193a-3p have been tested in various cancer cell lines (see Table 13). For this, various cells were treated with miRNA-193a at different concentrations (1, 3, 10 nM). For all experiments controls (untreated, mock and scrambled) were measured. All assays were performed at 24h, 48h and 72h time points. Data shown in Table 13 are the results for miRNA-193a at 10 nM concentration at indicated time points. All the results have been quantified and normalized to the mock control.
# (§3) miRNA-193a treatment in various cancer cell lines decreased cell viability over time as measured by either an MTS assay or by cell count. It enhanced apoptosis induction over time as measured by a caspase 3/7 apoptosis assay. […] It is of note that due to intrinsic characteristics and gene mutation status of each cell line, performing one method to detect apoptosis is not always ideal for all cell lines.
# HCT116 = test: Caspase 3/7 apoptosis assay; assay type: cell-based; conditions: 10 nM, normalized to mock
# Protocol: as §1, §2, §3
# H1299 = test: Caspase 3/7 apoptosis assay; assay type: cell-based; conditions: 10 nM, normalized to mock
# Protocol: as §1, §2, §3
# Panc-1 = test: Caspase 3/7 apoptosis assay; assay type: cell-based; conditions: 10 nM, normalized to mock
# Protocol: as §1, §2, §3
# 4T1 = test: Cell motility, Boyden chamber assay; assay type: cell-based, mouse; conditions: 10 nM
# Protocol: (§4) To check the migratory ability of cells, a Boyden Chamber assay was performed, which is based on a chamber of two medium-filled compartments separated by a […] pore size membrane (BD falcon). In this assay, depending on cell type 60,000-120,000 cells were seeded in the upper compartment of the membrane in serum free medium and were allowed to migrate through the pores of the membrane into the lower compartment, in which serum is present in the media. The serum acts as a chemoattractant. After an appropriate incubation time, the membrane between two compartments was fixed, stained and 6 different images from each membrane were taken. The number of migratory cells were counted using Image J analysis.
# as §2, with “Data shown in Table 13 are the results for miRNA-193a at 10 nM concentration at indicated time points.” left out
# miRNA-193a treatment in various cancer cell lines decreased cell viability over time as measured by either an MTS assay or by cell count. It enhanced apoptosis induction over time as measured by a caspase 3/7 apoptosis assay. […]
# A549, H460 = test: Cell viability (MTS assay or cell count); assay type: cell-based, human; conditions: 10 nM; NSCLC A549, H460; normalized to mock
# Protocol: (§5) Depending on cancer cell type 3000-6000 cells were seeded in a 96 well plate. After cells attached, they were transfected with different concentrations of miRNA-193a and viability was measured at different time points. Viability measurement was performed using CellTiter 96 AQueous One Solution Cell Proliferation Assay (Promega). 20 μL of MTS reagent was added to 100 μL of media in each well in 96-well plate and incubated for 2 hours at 37° C. Absorbance was measured at 490 nm for each sample in 96 well plate reader.
# as §2, with “All assays were performed at 24h, 48h and 72h time points.” left out
# as §3
# A2058 [1] = test: Cell viability (MTS assay or cell count); assay type: cell-based, human; conditions: 10 nM; Melanoma A2058; normalized to mock
# Protocol: as §5
# as §2, with “All assays were performed at 24h, 48h and 72h time points.” left out
# as §3
# Huh7 = test: Cell viability (MTS assay or cell count); assay type: cell-based, human; conditions: 10 nM; HCC Huh7; normalized to mock
# Protocol: as §5
# as §2, with “All assays were performed at 24h, 48h and 72h time points.” left out
# as §3
# HeP3B, SNU449 [2] = test: Cell viability (MTS assay or cell count); assay type: cell-based, human; conditions: 10 nM, HCC HeP3B, normalized to mock
# Protocol: as §5
# as §2, with “All assays were performed at 24h, 48h and 72h time points.” left out
# as §3
# [3] = system: twelve syngeneic tumor models; test: Primary tumor growth in a panel of twelve syngeneic tumor models (significance); assay type: in vivo, mice
# Text: In this study, the effect of miRNA-193a formulated in diamino lipid nanoparticles was investigated on the primary tumor growth in a panel of twelve syngeneic tumor models. Six to eight weeks mice (Shanghai Lingchang Bio-Technology Co. Ltd, Shanghai, China) were subcutaneously injected with an appropriate number of syngeneic cancer cells, depending on the cancer model (see Table 18). At the time of randomization, tumor volume (TV) was approximately 80-120 mm^3. Body weights and TVs (caliper measurements) were determined 2-3 times/week. After randomization (indicated as day 0) mice received PBS or miR-193a (formulated in diamino lipid nanoparticles) treatments as shown in Table 19. Each tumor model had two groups as depicted in Table 19. Mice were scheduled to be euthanized after two weeks of follow up after a maximum of four weeks of treatment.
# [4] = system: orthotopic human Hep3b hepatocellular carcinoma tumors; test: Tumor growth inhibition, orthotopic Hep3b model, AFP levels and tumor weights (Example 4.3); assay type: in vivo, mice; conditions: formulated in diamino lipid nanoparticles, iv
# Protocol: Seven to 8 weeks old female SCID/Beige mice (Shanghai Lingchang Bio-Technology Co. Ltd, Shanghai, China) were orthotopically implanted with a single 2×2×2 mm piece of a subq grown Hep3b tumor into the left liver lobe. Mice were randomized based on day 21 AFP levels. At the time of randomization, the AFP levels (ng/ml plasma) ranged between 1019 and 19779 ng/ml (median 5203, IQR=2690-9498). Treatments started on day 22 and continued for three weeks (see Table 8 for dosing scheme). AFP was measured once a week (4 times in total), and BW was measured twice a week. At the end of the study tumor weights were also determined. QDx3, QDx5=one injection per day for three or five consecutive days; BIW=twice a week; BID=twice daily; po=per oral.
# A2058 [5] = test: Cell motility, Boyden chamber assay; assay type: cell-based, human; conditions: 10 nM
# Protocol: as §4, §2, §3
# A549 = test: Cell motility, Boyden chamber assay; assay type: cell-based, human; conditions: 10 nM; A549 (first of two symbols in the cell)
# Protocol: as §4, §2, §3
# HeP3B, SNU449 [6] = test: Cell motility, Boyden chamber assay; assay type: cell-based, human; conditions: 10 nM
# Protocol: as §4, §2, §3
# A2058 cells = test: In vitro transwell migration assay; assay type: cell-based, human; conditions: miRNA-193a-3p at 10 nM; vs scrambled
# Protocol: as §4
# To assess the impact of miRNA-193a-3p on adenosine generation, the release of free phosphate in A2058 melanoma cells was measured as a read out for ATP, ADP, and AMP dephosphorylation in supernatants. […] Similar results were found by measuring the direct amount of adenosine in cell culture supernatants (FIG. 16B). Further, the role of miRNA-193a in A2058 cancer cell migration was investigated.
substance,measurement,setting,value
"miRNA-193a: duplex of the miRNA-193a-3p of SEQ ID NO: 218 (mimic, sense) with antisense strand SEQ ID NO: 219; naked in vitro, formulated in vivo (sense UGGGACUUUGUAGGCCAGUUTT; antisense AACUGGCCUACAAAGUCCCAGU; chemistry not given here; listed as Homo sapiens)",Apoptosis (48/72 h),H1975,↑ (Induction < 2x)
same,Apoptosis (48/72 h),HCT116,↑↑ (Induction > 2x)
same,Apoptosis (48/72 h),H1299,↑ (Induction < 2x)
same,Apoptosis (48/72 h),Panc-1,↑↑ (Induction > 2x)
same,Motility (18 to 24 h),4T1,↓
same,Viability (96 h),"A549, H460",↓↓ (Viability < 50%)
same,Viability (96 h),A2058 [1],↓↓ (Viability < 50%)
same,Viability (96 h),Huh7,↓↓ (Viability < 50%)
same,Viability (96 h),"HeP3B, SNU449 [2]",↓↓ (Viability < 50%)
same,"Tumor growth inhibition (TGI), significance","[3]; CT26, Renca, and Hepa1-6 models",did not induce significant TGI
same,"Tumor growth inhibition (TGI), significance","[3]; H22, Pan02, B16-BL6, RM-1, B16F10, MC38, A20, and EMT-6 models",significantly induced tumor growth inhibition
same,"TGI effects (AFP levels, tumor weights)",[4],significant TGI effects
same,Motility (18 to 24 h),A2058 [5],↓
same,Motility (18 to 24 h),A549,↓
same,Motility (18 to 24 h),"HeP3B, SNU449 [6]",↓
same,Migration ability of A2058 cells,A2058 cells,significantly suppressed migration ability
